Patent US20080227638A1, “Use of abscisic acid to enhance growth control” (priority 2007, published 2008)

Assays:
Assay type in all cases: in vivo
[1] = system: Kentucky bluegrass; assay: Greenhouse Kentucky bluegrass height and quality, ABA and paclobutrazol (Example 2)
Description: (§1) Greenhouse studies were conducted at the Research Farm of Valent BioSciences Corporation (Long Grove, Ill.). Grasses were grown in pots (18 cm in diameter and 18 cm in height) filled with Promix BX (available from Premier Horticulture Inc. Quakertown, Pa.). Grass was irrigated daily by an overhead irrigation system. The irrigation system was set up with multiple Tornado Mist Spray Heads (10 GPH at 40 PSI-Wetted diameter, NDS/Raindrip, Woodland Hills, Calif.). Spray heads were 1-meter apart from each other and 75 cm above grass canopy. Grass was cut with a scissor at 2.5 cm height and fertilizer (1 g/L all purpose fertilizer 20-20-20, available from The Scotts Company, Marysville, Ohio) was applied once per week.
(§2) Chemical solutions were prepared with distilled water. Tween 20 (0.05% v/v) was used as an, adjuvant. Both trinexapac-ethyl (commercial product Primo Maxx, 11.3% active ingredient) and paclobutrazol (commercial product Trimmit 2SC, 22.3% active ingredient) were purchased from Syngenta Crop Protection Inc. (Greensboro, N.C.). Uniconazole-P (commercial product Sumagic, 0.55% active ingredient) was obtained from Valent U.S.A. Corporation (Walnut Creek, Calif.).
(§3) When treated with paclobutrazol or uniconazole-P, turfgrass received irrigation within 24 hours after application to flush chemicals to the root zone. After treatment, turfgrasses were arranged in a randomized complete block experimental design. Turfgrass quality, turfgrass height or clip fresh weight was measured on assigned dates. Turfgrass quality was visually rated on a 0-9 scale based on the color, uniformity and density of the grass with 0 as the worst and 9 as the best. Turfgrass height was measured as the distance between canopy surface and soil. Clips were collected from each plot; all plots were cut to a uniform height.
(§4) All experiments were randomized complete block experimental design. Data were analyzed by analysis of variance. Duncan's new multiple range tests at α=0.05 were used for mean separations.
Kentucky bluegrass sod (unknown variety) was purchased from Deak sod farms, Inc. (Union Grove, Wis.). Grass was grown in the greenhouse in pots (n=6 pots per treatment) for establishment before treatment. […] Turfgrass quality was evaluated at 7 days after treatment, and turfgrass height was measured at 7 and 28 days after treatment. Tween 20 (0.05% w/v) was included as an adjuvant. The turfgrass canopy was cut every 7 days during the experimental period.

[2] = system: Kentucky bluegrass; assay: Greenhouse Kentucky bluegrass height, ABA and uniconazole-P (Example 3); conditions: 10 ppm uniconazole-P
Description: as §1, §2, §3, §4
Kentucky bluegrass sod (unknown variety) was purchased from Deak sod farms, Inc. (Union Grove, Wis.). Grass was grown in the greenhouse in pots (n=6 pots per treatment) for establishment before treatment. […] Tween 20 (0.05% w/v) was included as an adjuvant. The turfgrass was cut every 7 days.

[3] = system: creeping bentgrass; assay: Golf course green creeping bentgrass height, clip weight and quality, ABA and uniconazole-P (Example 5); conditions: 0.5 ppm uniconazole-P
Description: Field studies were conducted at the nursery green or the practice green at Countryside golf course (Mundelein, Ill.). Both greens were sand based and growing Penncross creeping bentgrass. Grass was managed with typical Illinois golf course management practices.
as §2, §3, §4
Tween 20 (0.05% w/v) was included as an adjuvant.

[4] = system: Bermudagrass; assay: Bermudagrass clip weight, ABA and uniconazole-P (Example 7); conditions: 50 ppm uniconazole-P; 7 days after treatment
Description: as §2, §3, §4

CC(C)(C)[C@@H](O)[C@@H](Cc1ccc(Cl)cc1)n1cncn1 [paclobutrazol]
Turfgrass height ([1]; 50 ppm paclobutrazol, 7 days after treatment): 12.3 cm
Turfgrass height ([1]; 50 ppm paclobutrazol, 28 days after treatment): 8.6 cm
Turfgrass height ([1]; 500 ppm paclobutrazol, 7 days after treatment): 12.1 cm
Turfgrass height ([1]; 500 ppm paclobutrazol, 28 days after treatment): 6.2 cm

CC(C)(C)[C@H](O)/C(=C\c1ccc(Cl)cc1)n1cncn1 [uniconazole-P]
Turfgrass height ([2]; 7 days after treatment): 12.3 cm
Turfgrass height ([2]; 42 days after treatment): 9.8 cm
Clip weight ([3]; 7 days after treatment): 2.4 g
Turfgrass height ([3]; 7 days after treatment): 6.0 cm
Clip weight ([3]; 49 days after treatment): 3.3 g
Turfgrass height ([3]; 49 days after treatment): 4.8 cm
Effect on turfgrass quality ([3]; throughout the study (not shown)): No effect on turfgrass quality
Clip weight [4]: 1.4 g
less clip weight compared to control [4]: 14%
